Values quoted from earlier work, collected in patent publication US20230157949A1, “ORAL FILM OF HIV DRUGS” (LAURUS LABS LIMITED, priority 2020, published 2023).

Conditions: in combination with low doses of ritonavir

increase of AUC: greater than 100 fold
SMILES: Cc1cccc(C)c1OCC(=O)N[C@@H](Cc1ccccc1)[C@@H](O)C[C@H](Cc1ccccc1)NC(=O)[C@H](C(C)C)N1CCCNC1=O [lopinavir, Lopinavir]
